Legend:
[1] = target: T1, TbrCatL (Trypanosoma brucei rhodesiense, UniProt Q95PM0); assay: TbrCatL enzymatic inhibition assay (cleavage of fluorogenic substrate Z-FR-AMC); type: biochemical; conditions: for TbrCatL 0’ Inhibition: 0’ (pre-incubation time); for TbrCatL 0’ Inhibition / TbrCatL 10’ Inhibition: sheet "Screening results"; for TbrCatL 10’ Inhibition: 10’ (pre-incubation time); for TbrCatL Inhibition 0’: 0’ (no pre-incubation); for TbrCatL Inhibition 0’ / TbrCatL Inhibition 10’: sheet Screening results; for TbrCatL Inhibition 10’: 10’ (pre-incubation)
T1 construct: Conor Caffrey (University of California San Diego)
T1 sequence (Q95PM0 entry or part of it): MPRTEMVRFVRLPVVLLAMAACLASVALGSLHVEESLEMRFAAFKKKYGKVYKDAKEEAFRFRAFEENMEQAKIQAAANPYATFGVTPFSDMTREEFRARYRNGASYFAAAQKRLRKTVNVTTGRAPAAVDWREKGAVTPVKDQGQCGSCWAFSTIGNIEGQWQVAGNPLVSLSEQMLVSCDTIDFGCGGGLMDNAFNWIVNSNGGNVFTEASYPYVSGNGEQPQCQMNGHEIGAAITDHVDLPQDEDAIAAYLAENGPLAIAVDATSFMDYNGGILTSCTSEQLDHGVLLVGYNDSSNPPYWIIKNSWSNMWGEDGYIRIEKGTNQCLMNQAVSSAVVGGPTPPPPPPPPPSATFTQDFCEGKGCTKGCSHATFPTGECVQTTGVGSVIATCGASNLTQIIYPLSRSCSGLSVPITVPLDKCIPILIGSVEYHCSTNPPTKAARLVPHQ
Method in brief: (§1)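 Recombinant enzymes assayed by Z-Phe-Arg-AMC cleavage at 25 °C, fluorescence 340/440 nm over 5–7 min, with 10 min or no enzyme–compound preincubation.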

[2] = target: cruzain (Trypanosoma cruzi, UniProt P25779); assay: biochemical; conditions: for Cruzain 0’ Inhibition: 0’ (pre-incubation time); for Cruzain 0’ Inhibition / Cruzain 10’ Inhibition: sheet "Screening results"; for Cruzain 10’ Inhibition: 10’ (pre-incubation time); for Cruzain Inhibition 0’: 0’ (no pre-incubation); for Cruzain Inhibition 0’ / Cruzain Inhibition 10’: sheet Screening results; for Cruzain Inhibition 10’: 10’ (pre-incubation)
cruzain, sequence (P25779 123-337 limits assumed): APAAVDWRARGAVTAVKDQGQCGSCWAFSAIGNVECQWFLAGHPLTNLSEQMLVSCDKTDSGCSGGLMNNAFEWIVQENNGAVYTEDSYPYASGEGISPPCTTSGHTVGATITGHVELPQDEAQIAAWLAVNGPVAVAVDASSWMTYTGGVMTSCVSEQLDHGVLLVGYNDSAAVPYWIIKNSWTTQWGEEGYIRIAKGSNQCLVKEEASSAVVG
Method in brief: as §1
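Note: at 5 µM compound concentration.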

SMILES	TbrCatL 0’ Inhibition [1] [%]	TbrCatL 10’ Inhibition [1] [%]	Cruzain 0’ Inhibition [2] [%]	Cruzain 10’ Inhibition [2] [%]	TbrCatL Inhibition 0’ [1] [%]	TbrCatL Inhibition 10’ [1] [%]	Cruzain Inhibition 0’ [2] [%]	Cruzain Inhibition 10’ [2] [%]
Nc1cccnc1Nc1ccc(Cl)cc1 [MMV676524]	11	11	4.7	13	–	–	–	–
COc1ccc(-c2cc(NC(=O)c3ccc(F)cc3Cl)ccc2OC)cc1 [MMV676526]	–	–	–	–	-15	-15	-17	-8
Cc1cccc(NC(=O)c2cc(S(=O)(=O)N(C)c3ccc(F)cc3)ccc2Cl)n1 [MMV676528]	–	–	–	–	-3	1.8	3.7	6
COCC(C)NC(=O)CSc1ncnc2sc(-c3ccccc3)cc12 (centres unmarked) [MMV676536]	–	–	–	–	13	33	18	16
O=C(NCCc1c[nH]c2ccccc12)c1cc2ccccc2oc1=O [MMV676539]	–	–	–	–	10	20	14	14
COc1ccc(Nc2ccccc2NC(=O)c2ccc(=O)[nH]c2)cc1 [MMV676554]	–	–	–	–	10	4.5	2.8	0.5
Cc1nnc(NCc2cccc(Cl)c2)c2ccccc12 [MMV676555]	–	–	–	–	3	-4.6	-1.4	3.2
CC1=NN(c2nc3ccccc3s2)C(=O)C1Cc1cccc2ccccc12 (centres unmarked) [MMV676558]	–	–	–	–	-23	-63	-23	-18
COc1ccc(-c2nc(-c3cccc(NC(=O)Cc4ccc(F)cc4)c3)no2)cc1OC [MMV676571]	–	–	–	–	8	10	6	4
O=C(NC1=NCCS1)c1sc2cc(F)ccc2c1Cl [MMV676584]	–	–	–	–	-0.5	-9	-2.7	9
Nc1c2c(nc3sc4c(c13)CCCC4)CCCC2 [MMV676588]	–	–	–	–	14	2	11	13
O=C(CCC1CCCCC1)Nc1cccc(-c2nnc(-c3ccco3)o2)c1 [MMV676589]	–	–	–	–	3.3	4.4	0	4
CCCn1nnc(NC(=O)COc2ccc(C3CCCCC3)cc2)n1 [MMV676597]	–	–	–	–	10	10	3	-3.3
CC(C)(C)n1nc(Cc2cccc3ccccc23)c2c(N)ncnc21 [MMV676599]	4.6	-5	9	11	–	–	–	–
CO[C@@H](C(=O)N1Cc2[nH]nc(NC(=O)c3ccc(N4CCN(C)CC4)cc3)c2C1)c1ccccc1 [MMV676600]	–	–	–	–	7.5	11	24	12
CNC(=O)c1nn(C)c2c1C(C)(C)Cc1cnc(Nc3ccc(N4CCN(C)CC4)cc3)nc1-2 [MMV676602]	–	–	–	–	4	1.5	0.9	-6
C[C@H]1COC2(CCN(c3nc(=O)c4cc(C(F)(F)F)cc([N+](=O)[O-])c4s3)CC2)O1 [MMV676603]	–	–	–	–	4.5	2.8	1.3	1.7
Cc1ncc(-c2ccnc(Nc3ccc(S(C)(=O)=O)cc3)n2)n1C(C)C [MMV676604]	–	–	–	–	3	-26	22	3.2
CC1(O)CC(c2nc(-c3ccc4ccc(-c5ccccc5)nc4c3)c3c(N)nccn23)C1 (centres unmarked) [MMV676605]	–	–	–	–	7	-13	7.4	-0.9
O=C(c1ccc(NCCO)cc1)C1C[C@H]1c1ccc(Cl)cc1 (some centres unmarked) [MMV676877]	1.1	9	9	5.5	–	–	–	–

— publication PMC9967275, “Screening the Pathogen Box to Discover and Characterize New Cruzain and TbrCatL Inhibitors” (Pathogens, 2023)
